The record followed here is BindingDB's records for doi:10.1021/jm00106a035 (University of Maryland, 1991).

A short description of test [1]: In vitro inhibitory activity towards [3H]cocaine binding to rat striatal tissue.
Experiment in test [2]: as above
The source holds these as a separate data set.

The IC50 is the point on the concentration scale where inhibition reaches its midpoint. Read a high IC50 as weaker potency. On to `COC(=O)C1C2CC[C@H](C[C@@H]1OC(=O)Nc1ccccc1)N2C` (stereo not given in full), for which the IC50 in test [1] turned out to be 5600 nM. In test [1], `COC(=O)C1C2CC[C@H](C[C@@H]1OC(=O)Nc1cccc(N)c1)N2C` (stereo not given in full) had an IC50 of 2070 nM.

Take `COC(=O)C1C2CC[C@H](C[C@@H]1OC(=O)Nc1ccc([N+](=O)[O-])cc1)N2C` (stereo not given in full): the IC50 in test [1] worked out at 1090 nM. The same measure, in the same setting: under `COC(=O)C1C2CC[C@H](C[C@@H]1OC(=O)Nc1cccc([N+](=O)[O-])c1)N2C` (stereo not given in full) stands 37 nM. In test [2], `COC(=O)[C@H]1[C@@H](OC(=O)c2ccccc2)C[C@@H]2CC[C@H]1N2C` [Cocaine (-)] came in with an IC50 of 65 nM.
